In US6432426B1, “Non-staining topical iodine composition and method” (Symbollon Corporation, priority 1998, dated 2002):

How the values were obtained:
[1] = Concentration of molecular iodine in a saturated solution; assay type: physicochemical; settings: pH of 4.5
Experimental: 5. […] A saturated solution of molecular iodine was prepared at a pH of 4.5. The concentration of molecular iodine was measured to be 320 ppm and the concentration of triiodide was determined to be less than 5 ppm. A 1.0 dram vial containing four mL of the saturated iodine solution was contacted with the forearm of a subject and then the forearm was inverted to initiate contact of the sample with the molecular iodine solution. The samples were contacted with the arm for 30 seconds. After contact the treated arm was flushed with water for 15 seconds and dried.

Candida albicans = experiment: Residual biocidal effect of skin associated iodine, repeated experiment; assay type: in vivo; settings: saturated molecular iodine solution (320 ppm)
Pseudomonas aeruginosa = experiment: as above; assay type: in vivo; settings: saturated molecular iodine solution (320 ppm)
Staphylococcus aureus = experiment: Residual biocidal effect of skin associated iodine, colony counts from inoculated treated skin; assay type: in vivo; settings: 320 ppm saturated molecular iodine solution, 30 second contact; inoculated two hours after contact, sampled ninety minutes after inoculation
Experimental: 5. […] […] […] […] The samples were contacted with the arm for 30 seconds. After contact the treated arm was flushed with water for 15 seconds and dried.
[…] Two hours after contact each area was inoculated with […] of a 1:100 dilution of a 48 hour soy-trypticase culture of Staphylococcus aureus. Ninety minutes after inoculation the mouths of sterile 25 mL flasks filled with 2 mL of soy-trypticase with 2% Tween 80 were placed over the marked skin areas. The flasks were gently shaken for 1 minute and a colony count was performed on blood agar plates after incubation at 37° C. for 48 hours. The residual biocidal effect from skin associated molecular iodine was determined by subtracting the log of the colony counts from the areas of skin that were contacted with iodine from the controls (log colony count from untreated skin). The average difference in colony counts between treated and untreated skin was 2.4 logs.

Human Skin = experiment: Coloration of human skin by a 30 second exposure (vial contact on forearm); hue by Pantone chips, intensity against Brown No. 3 dye; assay type: in vivo; design: key to Coloration of human skin: N = no visible staining; L = light staining barely noticeable; S = a clearly visible coloration; settings: for Coloration of human skin: 30 second exposure, lines = Subjects 1-3
Description: 1. […] Elemental iodine was weighed on an analytical balance and dissolved in one liter of water that had been acidified with 2 drops of 0.1N hydrochloric acid. The concentration of molecular iodine in the water was confirmed by potentiometric analysis (Gottardi, W., 1983. Fresenius Z. Anal. Chem., Vol. 314, pages 582-585). Samples were also titrated with thiosulfate to determine that at least 95% of the theoretical yield of titratable iodine was in the form of molecular iodine as opposed to triiodide. The concentration of molecular iodine was varied from 25 ppm to 330 ppm.
One dram vials (Kimble catalog #60931) were used to deliver 4 mL of the room temperature iodine solutions samples. The vials were placed on the forearm of a subject and then the forearm was inverted to initiate contact of the sample with the iodine solution. The contact area was a circle with a diameter of 1.3 cm. The samples were held on the arm for 30 seconds at room temperature. Three different subjects were used for this experiment. Immediately after the 30 second contact time the arms of the subjects were examined for stains; 10 minutes after the end of the contact time all subjects arms were examined for stains again..
For the purposes of this application, two different parameters were used to characterize the color and intensity of the term stain. The hue of the color imparted to skin was characterized by using the Pantone Color Matching System (Pantone Color Specifier, Pantone Inc., Carlstadt, N.J.) which allows comparison with 1,012 defined colors on two types of paper. Stains from triiodide were matched to the Pantone color chip No. 152C. Short-lived coloration from molecular iodine were matched to the Pantone color chip 1375C.
The intensity of any coloration on skin was characterized by applying an aqueous solution of known concentrations of a food dye, Brown No. 3 (Crompton & Knowles, Mahwah, N.J. —Code DP935159), for 10 seconds using the method described above for application of iodine. Brown No. 3 was applied to the skin at concentrations that ranged from 500 ppm to 30 ppm and the intensity of the color from Brown No. 3 was compared to the intensity of coloration from iodine compositions. For instance, the intensity of color 10 minutes after a 30 second contact with a 600 ppm aqueous triiodide solution was equivalent to the color from a 10 second exposure to a 250 ppm Brown No. 3 solution. In contrast, the intensity of color 10 minutes after a 30 second contact with a 300 ppm aqueous molecular iodine solution was equivalent to the color from a ten second exposure to a 30 ppm Brown No. 3 solution which is barely discernible.

II [Molecular Iodine, molecular iodine]
Concentration of molecular iodine in saturated solution [1]: 320 ppm | Residual biocidal efficacy on skin (Candida albicans): Efficacy was also demonstrated | Log reduction (smallest observed) (Pseudomonas aeruginosa): 0.5 logs | Average difference in colony counts between treated and untreated skin (Staphylococcus aureus): 2.4 logs | Coloration of human skin (Human Skin; 25 ppm molecular iodine, 0 min post contact): N | Coloration of human skin (Human Skin; 25 ppm molecular iodine, 10 min post contact): N | Coloration of human skin (Human Skin; 50 ppm molecular iodine, 0 min post contact): N | Coloration of human skin (Human Skin; 50 ppm molecular iodine, 10 min post contact): N | Coloration of human skin (Human Skin; 100 ppm molecular iodine, 0 min post contact): N and L | Coloration of human skin (Human Skin; 100 ppm molecular iodine, 10 min post contact): N | Coloration of human skin (Human Skin; 200 ppm molecular iodine, 0 min post contact): S | Coloration of human skin (Human Skin; 200 ppm molecular iodine, 10 min post contact): N | Coloration of human skin (Human Skin; 300 ppm molecular iodine, 0 min post contact): S | Coloration of human skin (Human Skin; 300 ppm molecular iodine, 10 min post contact): N and L | Intensity of color on skin, equivalent Brown No. 3 solution (ten second exposure) (Human Skin; 10 minutes after a 30 second contact with a 300 ppm aqueous molecular iodine solution, barely discernible): 30 ppm | Hue of the color imparted to skin, matched Pantone color chip (Human Skin; Pantone Color Matching System): 1375C
